Measured values as given in ChEMBL document CHEMBL1201862, “PubChem BioAssay data set” (2004).
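Cultured in 96-well plates, cells were exposed to test compound for 48 hours across five concentrations. GI50 marks 50% less growth.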 Active and inactive are the calls of the source. Rule as the data show it: active = GI50 up to about 1.1 µM and inactive = higher.

Experiments:
Assay in all cases: inhibition of tumour cell growth, NCI panel, 48 h
LOX IMVI = system: LOX IMVI
MDA-MB-435 = system: MDA-MB-435
IGROV-1 = system: IGROV-1
NCI-H23 = system: NCI-H23
HL-60 = system: HL-60
M14 = system: M14
SF-268 = system: SF-268
SN12C = system: SN12C
786-0 = system: 786-0
MOLT-4 = system: MOLT-4
CAKI-1 = system: CAKI-1
SNB-19 = system: SNB-19
HOP-62 = system: HOP-62
EKVX = system: EKVX
HCT-15 = system: HCT-15
NCI-H226 = system: NCI-H226
OVCAR-8 = system: OVCAR-8
Malme-3M = system: Malme-3M
ACHN = system: ACHN
DU-145 = system: DU-145

Structure (SMILES) | GI50 (LOX IMVI) | GI50 (MDA-MB-435) | GI50 (IGROV-1) | GI50 (NCI-H23) | GI50 (HL-60) | GI50 (M14) | GI50 (SF-268) | GI50 (SN12C) | GI50 (786-0) | GI50 (MOLT-4) | GI50 (CAKI-1) | GI50 (SNB-19) | GI50 (HOP-62) | GI50 (EKVX) | GI50 (HCT-15) [µM] | GI50 (NCI-H226) | GI50 (OVCAR-8) | GI50 (Malme-3M) | GI50 (ACHN) | GI50 (DU-145)
CCOC(=O)CCC(NC(=O)c1ccc(NCc2ccc3nc(OC)c(OC)nc3c2)c2ccccc12)C(=O)OCC (stereo not given) | > 100 µM (inactive) | > 100 µM (inactive) | 31.8 µM (inactive) | > 100 µM (inactive) | 0.0836 µM (active) | > 100 µM (inactive) | 42.7 µM (inactive) | > 100 µM (inactive) | 26.2 µM (inactive) | > 100 µM (inactive) | > 100 µM (inactive) | 76.2 µM (inactive) | 25.9 µM (inactive) | > 100 µM (inactive) | > 100 | > 100 µM (inactive) | 57.5 µM (inactive) | > 100 µM (inactive) | 55.8 µM (inactive) | > 100 µM (inactive)
O=C1C(=Cc2cccc(Cl)c2)N=C(c2ccccc2)N1n1c(-c2ccccc2)nc2ccccc2c1=O | 31.3 µM (inactive) | 36.8 µM (inactive) | 35.2 µM (inactive) | 20 µM (inactive) | 24.2 µM (inactive) | 22.7 µM (inactive) | 32.4 µM (inactive) | 45.2 µM (inactive) | 47.4 µM (inactive) | 23.4 µM (inactive) | 45.1 µM (inactive) | 38.1 µM (inactive) | 34.8 µM (inactive) | 28.4 µM (inactive) | 49.3 | 63.4 µM (inactive) | 28.7 µM (inactive) | 50.8 µM (inactive) | 37.7 µM (inactive) | 52.2 µM (inactive)
C[C@@H]1S[C@H](c2ccccc2F)N2Cc3ccccc3N=C12 | 18.5 µM (inactive) | 23.5 µM (inactive) | 33.5 µM (inactive) | 31.3 µM (inactive) | 19.3 µM (inactive) | 20.9 µM (inactive) | 28.6 µM (inactive) | 18.7 µM (inactive) | 23.4 µM (inactive) | 18.2 µM (inactive) | 20.9 µM (inactive) | 30.6 µM (inactive) | 29.8 µM (inactive) | 24.8 µM (inactive) | 28.5 | 30.1 µM (inactive) | 28.4 µM (inactive) | 19.9 µM (inactive) | 31.4 µM (inactive) | 33.7 µM (inactive)
c1csc(-c2nn3c(C45CC6CC(CC(C6)C4)C5)nnc3s2)c1 | > 100 µM (inactive) | > 100 µM (inactive) | > 100 µM (inactive) | > 100 µM (inactive) | > 100 µM (inactive) | > 100 µM (inactive) | > 100 µM (inactive) | > 100 µM (inactive) | > 100 µM (inactive) | > 100 µM (inactive) | > 100 µM (inactive) | > 100 µM (inactive) | > 100 µM (inactive) | > 100 µM (inactive) | > 100 | > 100 µM (inactive) | > 100 µM (inactive) | > 100 µM (inactive) | > 100 µM (inactive) | > 100 µM (inactive)
COC1CC(OC2C(C)OC(OC3C(C)OC(OC4C(O)CC(O[C@H]5CC[C@@]6(C)C(=CC[C@]7(O)[C@@H]6C[C@@H](OC(C)=O)[C@@]6(C)[C@]7(O)CC[C@@]6(O)C(C)=O)C5)OC4C)CC3OC)CC2OC)OC(C)C1O (stereo not given in full) | > 12.5 µM (inactive) | > 12.5 µM (inactive) | > 12.5 µM (inactive) | > 12.5 µM (inactive) | > 12.5 µM (inactive) | > 12.5 µM (inactive) | > 12.5 µM (inactive) | > 12.5 µM (inactive) | > 12.5 µM (inactive) | > 12.5 µM (inactive) | > 12.5 µM (inactive) | > 12.5 µM (inactive) | > 12.5 µM (inactive) | > 12.5 µM (inactive) | > 12.5 | > 12.5 µM (inactive) | > 12.5 µM (inactive) | 8.26 µM (inactive) | > 12.5 µM (inactive) | > 12.5 µM (inactive)
